# Data as given in PubChem BioAssay (NCI).
# Where “and” joins values, the source holds several entries; their conditions need not be identical. Equal entries are not always repeated.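 Cultured in 96-well plates, cells were exposed to test compound for 48 hours across five concentrations. At the GI50, growth is halved. At the TGI there is no net growth.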
# How the values were obtained:
# Test in all cases: inhibition of tumour cell growth, NCI panel, 48 h
# CCRF-CEM leukemia = tested on: CCRF-CEM leukemia
# IGROV1 ovarian = tested on: IGROV1 ovarian
# KM12 colon = tested on: KM12 colon
# MOLT-4 leukemia = tested on: MOLT-4 leukemia
# SF-268 CNS = tested on: SF-268 CNS
# SK-MEL-28 melanoma = tested on: SK-MEL-28 melanoma
# SK-MEL-5 melanoma = tested on: SK-MEL-5 melanoma
# SNB-75 CNS = tested on: SNB-75 CNS
# SNB-19 CNS = tested on: SNB-19 CNS
# DU-145 prostate = tested on: DU-145 prostate
SMILES,TGI (CCRF-CEM leukemia) [µM],TGI (IGROV1 ovarian) [µM],TGI (KM12 colon),TGI (MOLT-4 leukemia) [µM],TGI (SF-268 CNS) [µM],TGI (SK-MEL-28 melanoma) [µM],TGI (SK-MEL-5 melanoma),TGI (SNB-75 CNS),TGI (SNB-19 CNS),GI50 (CCRF-CEM leukemia) [µM],GI50 (DU-145 prostate) [µM],TGI (DU-145 prostate) [µM],GI50 (IGROV1 ovarian) [µM],GI50 (KM12 colon) [µM],GI50 (MOLT-4 leukemia) [µM],GI50 (SF-268 CNS) [µM],GI50 (SK-MEL-28 melanoma) [µM],GI50 (SK-MEL-5 melanoma) [µM],GI50 (SNB-19 CNS) [µM],GI50 (SNB-75 CNS) [µM]
CC(C)(C)OC(=O)N1N=NC2C1C1CC(OCc3ccccc3)(OCc3ccccc3)C2O1 (centres undefined),63.5,> 100,> 100 µM,> 100,> 100,91.3,32.6 µM,> 100 µM,,,,,,,,,,,,
CC1CN1c1c(C(=O)/C=C/c2ccc(Cl)cc2)c(-c2ccccc2)nn(C)c1=O (centres undefined),5.2,8.68,> 10 µM,8.02,> 10,> 10,,8.28 µM,> 10 µM,,,,,,,,,,,
O=c1nc(-c2ccccc2)cc(-c2ccccc2O)[nH]1,> 100,> 100,> 100 µM,> 100,> 100,> 100,,> 100 µM,> 100 µM,,,,,,,,,,,
Cc1cccc(C)c1NC(=O)C(=O)CC(=O)c1cccc([N+](=O)[O-])c1,> 100,> 100,> 100 µM,> 100,> 100,> 100,> 100 µM,> 100 µM,> 100 µM,,,,,,,,,,,
O=C1C(Cl)=C(Nc2ccccc2O)C(=O)N1Cc1ccccc1,32.7,> 100,36.2 µM,> 100,52.2,55.4,28.6 µM,,> 100 µM,14.5,18.2,32.1,29.7,17.8,19.6,20.8,25.1,15.3,35.8,
O=C(O)CN(c1ccccc1)S(=O)(=O)c1ccc([N+](=O)[O-])cc1,> 100,> 100,> 100 µM,> 100,,,> 100 µM,,> 100 µM,,,,,,,,,,,
O=C1CSC(c2ccc(-c3nc4ccccc4s3)cc2)=N1,,> 100,13.8 µM,,,> 100,41.2 µM,> 100 µM,> 100 µM,,67,> 100,50.5,3.11,,,87.2,19.2,72.7,> 100
C=C1CC[C@@H](C(C)C)C[C@@H]2[C@H]([C@H](O)C[C@]2(C)O)[C@@]2(C)CC[C@@H]1O2,,33.4,32 µM,51.2,30.1,,28.3 µM,38.9 µM,33.2 µM,,15.8,31.4,17.2,16.2,22.8,16.5,,14.8,19.2,17
Clc1ccc(N=CNc2ccc(-c3nc4ccccc4o3)cc2)cc1,,> 100,38.7 µM,> 100,39,,30.1 µM,,> 100 µM,,14,38.2,84.2,15.4,60.7,12.7,,15.4,35.8,
OCC(O)CNc1ccnc2cc(Cl)ccc12 (centres undefined),> 100,> 100,> 100 µM,> 100,> 100,> 100,> 100 µM,> 100 µM,> 100 µM,,,,,,,,,,,
CCN(CC)c1cc2oc3cc(N)cc(=N)c-3nc2cc1C,,14.3,29.8 µM,,18.2,27,2.79 µM,13.4 µM,32 µM,,2.2,4.92,3.03,3.93,,3.26,5.7,1.42,5.46,2.84
C=CCn1c2c(sc1=S)C(S)N=CN2 (centres undefined),> 100,> 100,> 100 µM,> 100,> 100,> 100,> 100 µM,> 100 µM,> 100 µM,,,,,,,,,,,
COC(=O)/C(=C\c1ccc(N(CCC#N)CCC#N)cc1)NC(=O)c1cc([N+](=O)[O-])ccc1Cl,> 100,> 100,> 100 µM,> 100,> 100,> 100,> 100 µM,> 100 µM,> 100 µM,,,,,,,,,,,
CCOC(=O)/C(=C/c1cccc(C#N)c1)N(CC)CC,> 100,> 100,> 100 µM,> 100,> 100,> 100,> 100 µM,> 100 µM,,,,,,,,,,,,
N#CC(C(=O)CCC(=O)Nc1cccc(C(F)(F)F)c1)c1ccc(Cl)cc1 (centres undefined),> 100,> 100,> 100 µM,> 100,> 100,,> 100 µM,,> 100 µM,,,,,,,,,,,
Oc1ccc(Br)cc1C=Nc1ccc(N=Cc2cc(Br)ccc2O)cc1,> 100,> 100,> 100 µM,> 100,> 100,,> 100 µM,> 100 µM,> 100 µM,,,,,,,,,,,
CCOc1ccccc1NC(=O)C(C#N)C1=C(Cl)C(=O)c2ccccc2C1=O (centres undefined),,5.31,3.23 µM and 4.59 µM,3.32,4.79,3.62,2.86 µM and 3.13 µM,3.94 µM and 3.09 µM,3.6 µM and 10.2 µM,3.15,,,,2.13,,,,,3.07,1.68
CC1=C(C(=O)NNS(=O)(=O)c2ccc(C)cc2)CC(C(=O)NNS(=O)(=O)c2ccc(C)cc2)=C(C)N1,,> 100,> 100 µM,> 100,> 100,> 100,,,> 100 µM,,,,,,,,,,,
Cc1ncc([N+](=O)[O-])n1CCNS(=O)(=O)CCCn1ncnc1[N+](=O)[O-],> 100,> 100,> 100 µM,> 100,> 100,> 100,> 100 µM,> 100 µM,,,,> 100,,,,,,,,
CN(C)CCSc1nccc(-c2cc3ccccc3s2)n1,59.4,> 100,48.2 µM,66.1,,40.9,27.9 µM,> 100 µM,,,,,,,,,,,,
O=C(O)CSc1n[nH]c(Cc2ccccc2)n1,> 100,> 100,> 100 µM,> 100,> 100,> 100,> 100 µM,,> 100 µM,,,,,,,,,,,
